Values joined by “and” are separate entries in the source; they are usually repeats but may differ in a detail not shown here. Equal values may be shown once. Read-outs that look alike come from different tables or passages of the source.
Key:
[1] = molecular target: T1, glucoamylase from Aspergillus Niger (Aspergillus niger, UniProt P69328); details: pH 5.2, 37° C., 10 min
Experimental: The control reaction mixture contained enzyme, buffer, and starch but no manganese ion. The starch hydrolysis reaction was stopped by combining the reaction mixture with a solution containing DNSA and heating for 30 min at 85° C. The absorbance of the control and test samples was measured at 562 nm to monitor the amount of reducing sugar in each sample.

[2] = molecular target: T1, glucoamylase from Aspergillus Niger; details: pH 5.2, 37° C., 10 min; remark: listed apart in the source
Experimental: The separate reaction mixtures were incubated at 37° C. for 10 minutes. The control reaction mixture contained enzyme, buffer, and starch but no manganese ion. The starch hydrolysis reaction was stopped by combining the reaction mixture with a solution containing DNSA and heating for 30 min at 85° C. The absorbance of the control and test samples was measured at 562 nm to monitor the amount of reducing sugar in each sample.

[3] = molecular target: T2, α-amylase from porcine pancreas (Sus scrofa, UniProt P00690); assay: hydrolysis of cooked dent corn starch; format: biochemical; details: cooked dent corn starch 0.5%, pH 5.2, 37° C., 10 min
T2 construct: the α-amylase from porcine pancreas; from tissue; host or cells: porcine pancreas
T2 sequence (P00690 16-511): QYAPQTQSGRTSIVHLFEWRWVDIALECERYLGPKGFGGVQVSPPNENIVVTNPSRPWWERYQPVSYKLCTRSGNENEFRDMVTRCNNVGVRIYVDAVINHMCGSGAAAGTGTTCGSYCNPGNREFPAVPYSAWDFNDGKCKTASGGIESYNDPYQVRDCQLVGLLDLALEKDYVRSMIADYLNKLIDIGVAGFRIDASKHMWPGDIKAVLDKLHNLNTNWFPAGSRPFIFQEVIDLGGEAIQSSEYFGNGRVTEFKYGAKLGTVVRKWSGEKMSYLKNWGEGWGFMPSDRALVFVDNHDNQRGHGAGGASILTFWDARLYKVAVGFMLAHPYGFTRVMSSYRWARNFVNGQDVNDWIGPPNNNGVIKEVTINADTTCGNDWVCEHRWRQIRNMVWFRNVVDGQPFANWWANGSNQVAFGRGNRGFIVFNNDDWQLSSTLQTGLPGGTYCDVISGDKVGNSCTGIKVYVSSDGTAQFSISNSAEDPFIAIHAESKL
Experimental: (§1) The separate reaction mixtures were incubated at 37° C. for 10 minutes. The control reaction mixtures contained enzyme, buffer, and starch but no manganese ion. The starch hydrolysis reaction was stopped by combining the reaction mixture with a solution containing DNSA and heating for 30 min at 85° C. The absorbance of the control and test samples was measured at 562 nm to monitor the amount of reducing sugar in each sample.

[4] = molecular target: β-amylase from barley (Hordeum vulgare, UniProt P16098); assay: hydrolysis of cooked dent corn starch; format: biochemical; details: cooked dent corn starch 0.5%, pH 5.2, 37° C., 10 min
β-amylase from barley, sequence (P16098 whole entry): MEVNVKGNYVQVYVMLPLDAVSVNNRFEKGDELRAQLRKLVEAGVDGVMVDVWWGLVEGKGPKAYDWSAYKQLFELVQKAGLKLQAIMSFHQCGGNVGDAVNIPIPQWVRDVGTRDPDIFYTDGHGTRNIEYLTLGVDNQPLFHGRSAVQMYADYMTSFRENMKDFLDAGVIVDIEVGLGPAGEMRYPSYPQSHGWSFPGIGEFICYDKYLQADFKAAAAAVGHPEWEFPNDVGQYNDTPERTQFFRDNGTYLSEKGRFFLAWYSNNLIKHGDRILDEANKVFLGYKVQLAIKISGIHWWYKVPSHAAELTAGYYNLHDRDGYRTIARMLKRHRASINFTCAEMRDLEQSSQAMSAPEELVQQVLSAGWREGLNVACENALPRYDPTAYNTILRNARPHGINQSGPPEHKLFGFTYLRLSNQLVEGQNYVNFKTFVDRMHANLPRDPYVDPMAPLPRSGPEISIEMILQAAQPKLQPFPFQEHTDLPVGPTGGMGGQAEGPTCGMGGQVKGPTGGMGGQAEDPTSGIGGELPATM
Experimental: as §1

T1 sequence (P69328 25-640): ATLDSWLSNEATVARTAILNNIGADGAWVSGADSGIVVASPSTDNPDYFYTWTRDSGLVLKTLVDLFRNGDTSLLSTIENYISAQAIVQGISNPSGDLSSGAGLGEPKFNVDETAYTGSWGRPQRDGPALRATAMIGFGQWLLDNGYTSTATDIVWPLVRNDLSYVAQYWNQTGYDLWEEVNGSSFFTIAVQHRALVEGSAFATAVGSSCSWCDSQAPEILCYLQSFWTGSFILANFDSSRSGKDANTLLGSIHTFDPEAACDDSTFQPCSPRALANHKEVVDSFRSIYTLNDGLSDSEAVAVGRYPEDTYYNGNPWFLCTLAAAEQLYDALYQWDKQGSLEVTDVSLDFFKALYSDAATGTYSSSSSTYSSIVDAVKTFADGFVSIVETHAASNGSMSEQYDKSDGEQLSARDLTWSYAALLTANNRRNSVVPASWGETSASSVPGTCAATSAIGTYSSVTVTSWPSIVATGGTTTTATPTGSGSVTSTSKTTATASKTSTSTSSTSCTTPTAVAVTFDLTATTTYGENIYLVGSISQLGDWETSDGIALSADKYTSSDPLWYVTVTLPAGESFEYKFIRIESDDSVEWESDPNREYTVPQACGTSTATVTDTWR

Structure (SMILES): [Mn+2] [Mn^++, manganese ions]
- Relative Activity ([1]; 0.01 mM Mn^++, cooked barley starch 0.5%): 111.1%
- Relative Activity ([1]; 0.01 mM Mn^++, cooked pea starch 0.5%): 121.1%
- Relative Activity ([1]; 0.01 mM Mn^++, cooked potato starch 0.5%): 112.0%
- Relative Activity ([1]; 0.01 mM Mn^++, cooked rice starch 0.5%): 109.3%
- Relative Activity ([1]; 0.01 mM Mn^++, cooked soluble potato starch 0.5%): 104.0% and 115.7%
- Relative Activity ([1]; 0.01 mM Mn^++, cooked tapioca starch 0.5%): 109.5%
- Relative Activity ([1]; 0.01 mM Mn^++, cooked wheat starch 0.5%): 111.9%
- Relative Activity ([1]; 0.1 mM Mn^++, cooked barley starch 0.5%): 117.5%
- Relative Activity ([1]; 0.1 mM Mn^++, cooked pea starch 0.5%): 124.0%
- Relative Activity ([1]; 0.1 mM Mn^++, cooked potato starch 0.5%): 118.8%
- Relative Activity ([1]; 0.1 mM Mn^++, cooked rice starch 0.5%): 129.3%
- Relative Activity ([1]; 0.1 mM Mn^++, cooked soluble potato starch 0.5%): 121.0% and 130.1%
- Relative Activity ([1]; 0.1 mM Mn^++, cooked tapioca starch 0.5%): 126.0%
- Relative Activity ([1]; 0.1 mM Mn^++, cooked wheat starch 0.5%): 122.2%
- Relative Activity ([1]; 1 mM Mn^++, cooked barley starch 0.5%): 120.4%
- Relative Activity ([1]; 1 mM Mn^++, cooked pea starch 0.5%): 138.0%
- Relative Activity ([1]; 1 mM Mn^++, cooked potato starch 0.5%): 138.5%
- Relative Activity ([1]; 1 mM Mn^++, cooked rice starch 0.5%): 144.0%
- Relative Activity ([1]; 1 mM Mn^++, cooked soluble potato starch 0.5%): 140.0% and 79.9%
- Relative Activity ([1]; 1 mM Mn^++, cooked tapioca starch 0.5%): 135.7%
- Relative Activity ([1]; 1 mM Mn^++, cooked wheat starch 0.5%): 142.5%
- Relative Activity ([1]; 10 mM Mn^++, cooked barley starch 0.5%): 172.6%
- Relative Activity ([1]; 10 mM Mn^++, cooked pea starch 0.5%): 179.8%
- Relative Activity ([1]; 10 mM Mn^++, cooked potato starch 0.5%): 200.0%
- Relative Activity ([1]; 10 mM Mn^++, cooked rice starch 0.5%): 209.2%
- Relative Activity ([1]; 10 mM Mn^++, cooked tapioca starch 0.5%): 183.8%
- Relative Activity ([1]; 10 mM Mn^++, cooked wheat starch 0.5%): 185.4%
- Relative Activity ([2]; 0.01 mM Mn^++, cooked dent corn starch 0.5%): 113.3%
- Relative Activity ([2]; 0.01 mM Mn^++, cooked high-amylose V corn starch 0.5%): 119.2%
- Relative Activity ([2]; 0.01 mM Mn^++, cooked soluble corn starch 0.5%): 119.1%
- Relative Activity ([2]; 0.01 mM Mn^++, cooked waxy corn starch 0.5%): 113.0%
- Relative Activity ([2]; 0.1 mM Mn^++, cooked dent corn starch 0.5%): 126.1%
- Relative Activity ([2]; 0.1 mM Mn^++, cooked high-amylose V corn starch 0.5%): 130.9%
- Relative Activity ([2]; 0.1 mM Mn^++, cooked soluble corn starch 0.5%): 129.1%
- Relative Activity ([2]; 0.1 mM Mn^++, cooked waxy corn starch 0.5%): 130.1%
- Relative Activity ([2]; 1 mM Mn^++, cooked dent corn starch 0.5%): 148.4%
- Relative Activity ([2]; 1 mM Mn^++, cooked high-amylose V corn starch 0.5%): 141.3%
- Relative Activity ([2]; 1 mM Mn^++, cooked soluble corn starch 0.5%): 144.8%
- Relative Activity ([2]; 1 mM Mn^++, cooked waxy corn starch 0.5%): 147.2%
- Relative Activity ([2]; 10 mM Mn^++, cooked dent corn starch 0.5%): 186.9%
- Relative Activity ([2]; 10 mM Mn^++, cooked high-amylose V corn starch 0.5%): 193.1%
- Relative Activity ([2]; 10 mM Mn^++, cooked soluble corn starch 0.5%): 178.3%
- Relative Activity ([2]; 10 mM Mn^++, cooked waxy corn starch 0.5%): 200.3%
- Relative Activity ([3]; 0.01 mM Mn^++): 114.5%
- Relative Activity ([3]; 0.1 mM Mn^++): 132.4%
- Relative Activity ([3]; 1 mM Mn^++): 144.2%
- Relative Activity ([3]; 10 mM Mn^++): 177.7%
- Relative Activity ([4]; 0.01 mM Mn^++): 123.5%
- Relative Activity ([4]; 0.1 mM Mn^++): 135.3%
- Relative Activity ([4]; 1 mM Mn^++): 149.8%
- Relative Activity ([4]; 10 mM Mn^++): 210.1%

Reference: US20080102497A1, “ENZYMATIC HYDROLYSIS OF STARCH” (priority 2006, published 2008)
